Reference: US20100255990A1, “METHOD, COMPOSITION AND KIT FOR PROMOTIONG PLANT GROWTH AND IMPROVING PLANT PRESERVATION” (Doosan Corporation, priority 2005, published 2010)

How the values were obtained:
[1] = tested on: Muscat Bailey A (late-season cv.) grapes; assay: Coloring development of grape fruit; assay type: in vivo; settings: two weeks after treatment; LPE 50 ppm, sodium silicate 100 ppm, 200 GPA; FIGS. 7a to 7c
Text: Grapes used in the experiment were Muscat Bailey A (late-season cv.). […] [table]

[2] = tested on: mung beans; assay: Adventitious root growth of mung beans; assay type: in vivo; settings: two weeks after treatment; 50 ppm each; FIGS. 9 and 10
[3] = tested on: crimson; assay: Yield of crimson grapes, single application; assay type: in vivo, Vitis Vinifera sp.; settings: one treatment, LPE 50 ppm, potassium silicate 100 ppm, 200 GPA, FIG. 2
Protocol: (§1) The grape was selected as a test plant. Crimson and red globe (scientific name: Vitis Vinifera sp.) were used as the grape.
The each treatment was carried out for an area of 5 acres. All treatments were carried out with a typical orchard air blast sprayer.
(§2) All harvests after the each treatment were carried out by the workers belonging to the farm according to the ordinary harvesting method, so that the grapes were harvested in accordance with a commercial standard. The number and grade of the box harvested from the respective treatment row were recorded for each harvest day, with regard to the each treatment.
For the crimson which is cultivated in California, the above 6 treatments were carried out. The treatment was carried out only one time.

[4] = tested on: red globe; assay: Yield of red globe grapes, each treatment carried out two times consecutively; assay type: in vivo, Vitis Vinifera sp.; settings: two treatments 40 days apart, LPE 50 ppm, potassium silicate 100 ppm, 200 GPA, FIG. 3
Protocol: as §1
(§3) The control group 2 is the case where they are treated with Ethrel, which is widely sold and used as a plant growth regulator, in an amount of 400 ppm, 100 GPA.
(§4) The control group 3 is such that it is treated with the solution of LPE 10% in an amount of 50 ppm, 200 GPA.
(§5) The solutions were injected in a spray manner, except the control groups 1 and 5. The each treatment was carried out for an area of 5 acres. All treatments were carried out with a typical orchard air blast sprayer.
as §2
For the red globe which is cultivated in California, the above 6 treatments were successively carried out two times.

[5] = tested on: Muscat Bailey A (late-season cv.) grapes; assay: Color of grape leaves; assay type: in vivo; settings: two weeks after treatment; LPE 50 ppm, sodium silicate 100 ppm, 200 GPA; FIGS. 8a to 8c
Protocol: Grapes used in the experiment were Muscat Bailey A (late-season cv.). […] [table] Meanwhile, an observation after two weeks was also carried out for colors of grape leaves.

[6] = tested on: Muscat Bailey A (late-season cv.) grapes; assay: Preservation stability of the grape fruit; assay type: in vivo; parameters: unit not given here; settings: preserved at room temperature for 14 days
Text: Grapes used in the experiment were Muscat Bailey A (late-season cv.).
The grapes treated in the Example 3 were harvested, and preserved at a room temperature for 14 days. Then, calculation has been done for a ratio of complete grape fruits that were not decayed or no bruise.

[7] = tested on: crimson; assay: Yield of crimson grapes, each treatment carried out two times consecutively; assay type: in vivo, Vitis Vinifera sp.; settings: two treatments 40 days apart, LPE 50 ppm, potassium silicate 100 ppm, 200 GPA, Ethrel 400 ppm, 100 GPA, FIG. 1
Protocol: as §1, §3, §4, §5, §2
For the crimson which is cultivated in California, the above 6 treatments were successively carried out two times.

[8] = tested on: protoplast of corn root; assay: Reactive oxygen species (ROS) by DCF-DA flow cytometry; assay type: cell-based, Zea mays L; settings: incubated 5 minutes
Protocol: The corns (Zea mays L) were used according to the following procedures: seeds of Golden cross Bantam were sufficiently washed in the flowing water and immersed in the distilled water for 24 hours. Then, the seeds were arranged in a line on the cultivation dish where the paper wetted with the distilled water was put on the cultivation dish and the ventral side of the seeds was forced to touch with the dish bottom. The seeds were covered with the wetted paper by two folds. […] The individuals having the root length of 1.5-2 cm were selected and used in this experiment. The protoplast of the corn root etiolated was modified according to the following method (Sheen J, Metabolic repression of transcription in higher plants, Plant Cell, 1990 October: 2(10):1027-38). In other words, the protoplast was separated from the two-day etiolated young corn plant. […] The compound was converted into […] by the esterase in the cell, which was in turn oxidized by the reactive oxygen species such as H2O2 and thus changed into 2′, 7′-dichlorofluorescine (DCF) having the highest fluorescence. […]

In the case of lysophosphatidylethanolamine [LPE], the colors of grapes [1] is reported as “excellent in the order of the experimental group 4, the control group 11, and the control group 10”, the “length of the adventitious roots” value [2] is reported as “the length thereof is short” and the “number of the adventitious roots” value [2] is reported as “large number”. The yield [3] was 96.3, the “increase of yield as compared to the control groups 1 and 5, which were not treated” value [4] was “about 22 boxes” and the “colors of grape leaves” value [5] was “many leaves become discolored to yellow”. The “ratio of complete grape fruits that were not decayed or no bruise” value ([6]; Average of 6 repeats) was 6.9, the “ratio of complete grape fruits that were not decayed or no bruise” value ([6]; Repeat 1) was 14.2 and the “ratio of complete grape fruits that were not decayed or no bruise” value ([6]; Repeat 2) was 15.6. For the same substance, the “ratio of complete grape fruits that were not decayed or no bruise” value ([6]; Repeat 3) was 4.0, the “ratio of complete grape fruits that were not decayed or no bruise” value ([6]; Repeat 4) was 0 and the “ratio of complete grape fruits that were not decayed or no bruise” value ([6]; Repeat 5) was 3.7. The “ratio of complete grape fruits that were not decayed or no bruise” value ([6]; Repeat 6) was 3.7, the “yield of the grapes (ranking of groups)” value [7] was “smaller than those of the control groups 1 and 5 which were not treated” and the “increase amount of ROS” value ([8]; LPE 20 ppm (combination: + sodium silicate 40 ppm)) was 200-300%. For the same substance, the “increase amount of ROS” value ([8]; LPE 50 ppm (combination: + sodium silicate 100 ppm)) was 200-300%.
